According to the supplement of paper PMC10307832:

Key:
Assay in all cases: relative viability (nuclei count vs DMSO), 5 days (fraction); higher = more cells survive
Entinostat + Vorinostat = compound: Nc1ccccc1NC(=O)c1ccc(CNC(=O)OCc2cccnc2)cc1 [Entinostat] + O=C(CCCCCCC(=O)Nc1ccccc1)NO [Vorinostat] (partner 1 µM)
Outline: (§1)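 The day after seeding in 1536-well plates, lung cancer cell lines were treated by pin tool with a single drug, or with a fixed anchor-drug dose together with five library-drug doses (not always all listed) in √10 steps. After 5 days, a combined fix-and-stain solution (final 0.05% Triton X-100, 1% formaldehyde, 1 ug/ml Hoechst) was added. Nuclei counted on 4× images gave relative viability as treated counts over vehicle counts, reported as the median of duplicate plates.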

SGI-1776 + Decitabine = compound: CN1CCC(CNc2ccc3ncc(-c4cccc(OC(F)(F)F)c4)n3n2)CC1 [SGI-1776] + Nc1ncn([C@H]2C[C@H](O)[C@@H](CO)O2)c(=O)n1 [Decitabine] (partner 2 µM)
Outline: as §1

Entinostat + Palbociclib = compound: Nc1ccccc1NC(=O)c1ccc(CNC(=O)OCc2cccnc2)cc1 [Entinostat] + CC(=O)c1c(C)c2cnc(Nc3ccc(N4CCNCC4)cn3)nc2n(C2CCCC2)c1=O [Palbociclib] (partner 0.5 µM)
Outline: as §1

SGI-1776 + Alpelisib = compound: CN1CCC(CNc2ccc3ncc(-c4cccc(OC(F)(F)F)c4)n3n2)CC1 [SGI-1776] + Cc1nc(NC(=O)N2CCC[C@H]2C(N)=O)sc1-c1ccnc(C(C)(C)C(F)(F)F)c1 [Alpelisib] (partner 2 µM)
Outline: as §1

Row | Cell Line | relative viability (Entinostat + Vorinostat; first compound 0.02 µM) | relative viability (Entinostat + Vorinostat; first compound 0.06325 µM) | relative viability (Entinostat + Vorinostat; first compound 0.2 µM) | relative viability (Entinostat + Vorinostat; first compound 0.6325 µM) | relative viability (Entinostat + Vorinostat; first compound 2 µM) | relative viability (SGI-1776 + Decitabine; first compound 0.08 µM) | relative viability (SGI-1776 + Decitabine; first compound 0.8 µM) | relative viability (SGI-1776 + Decitabine; first compound 2.53 µM) | relative viability (SGI-1776 + Decitabine; first compound 8 µM) | relative viability (Entinostat + Palbociclib; first compound 0.02 µM) | relative viability (Entinostat + Palbociclib; first compound 0.06325 µM) | relative viability (Entinostat + Palbociclib; first compound 0.2 µM) | relative viability (Entinostat + Palbociclib; first compound 0.6325 µM) | relative viability (Entinostat + Palbociclib; first compound 2 µM) | relative viability (SGI-1776 + Alpelisib; first compound 0.08 µM) | relative viability (SGI-1776 + Alpelisib; first compound 0.8 µM) | relative viability (SGI-1776 + Alpelisib; first compound 2.53 µM) | relative viability (SGI-1776 + Alpelisib; first compound 8 µM)
1 | SK-MES-1 | 1.02 | 1.03 | 1.26 | 0.954 | 0.743 | 0.365 | 0.372 | 0.367 | 0.303 | 0.31 | 0.395 | 0.394 | 0.43 | 0.422 | 0.896 | 0.897 | 1.01 | 0.647
2 | NCI-H1793 | 0.78 | 0.854 | 0.801 | 0.439 | 0.29 | 0.49 | 0.512 | 0.516 | 0.509 | 0.329 | 0.321 | 0.263 | 0.248 | 0.189 | 0.807 | 0.808 | 0.974 | 0.602
3 | LC-2-ad | 0.666 | 0.686 | 0.695 | 0.356 | 0.257 | 0.806 | 0.811 | 0.737 | 0.779 | 0.473 | 0.412 | 0.417 | 0.421 | 0.323 | 1.06 | 1 | 0.94 | 0.731
4 | NCI-H3122 | 1.09 | 0.904 | 0.979 | 0.634 | 0.255 | 0.414 | 0.457 | 0.452 | 0.47 | 0.191 | 0.217 | 0.208 | 0.181 | 0.187 | 0.707 | 0.837 | 0.868 | 0.757
5 | LCLC-97TM1 | 0.65 | 0.742 | 0.588 | 0.398 | 0.161 | 0.234 | 0.206 | 0.26 | 0.236 | 0.21 | 0.213 | 0.236 | 0.277 | 0.18 | 0.195 | 0.238 | 0.239 | 0.22
6 | NCI-H520 | 0.634 | 0.732 | 0.764 | 0.491 | 0.306 | 0.46 | 0.523 | 0.511 | 0.414 | 0.195 | 0.237 | 0.32 | 0.355 | 0.236 | 0.928 | 0.94 | 0.914 | 0.759
7 | NCI-H358 | 0.67 | 0.618 | 0.947 | 0.211 | 0.117 | 0.223 | 0.245 | 0.191 | 0.133 | 0.134 | 0.14 | 0.17 | 0.127 | 0.125 | 0.786 | 0.837 | 0.751 | 0.405
8 | NCI-H1755 | 0.762 | 0.728 | 0.769 | 0.48 | 0.374 | 0.714 | 0.695 | 0.717 | 0.622 | 0.439 | 0.454 | 0.446 | 0.407 | 0.342 | 0.996 | 0.944 | 0.885 | 0.795
9 | EPLC-272H | 0.483 | 0.397 | 0.33 | 0.236 | 0.139 | 0.371 | 0.365 | 0.395 | 0.322 | 0.406 | 0.334 | 0.364 | 0.282 | 0.215 | 0.943 | 0.952 | 1.16 | 0.804
